Results reported in patent US8212104B2, “Model of experimentally induced chronic pain and uses thereof” (The Board of Regents of the University of Texas System, priority 2008, dated 2012).
Entries after “also recorded” stand apart in the source; their conditions may differ.

How the values were obtained:
[1] = test system: peripheral nerve injury sheep model; experiment: Mechanical hyperalgesia (pin-prick test) after intrathecal morphine in the peripheral nerve injury sheep model; format: in vivo
Protocol: Adult female merino sheep weighing 40-60 kg were used to produce the peripheral nerve injury sheep model. All experimental procedures were approved by the Institutional of Animal Care and Use Committee at the University of Texas Medical Branch and were in accordance with the guidelines of National Institutes of Health and of the International Association for the study of Pain (IASP).
Sheep were fasted for 24 hours prior to surgery. General anesthesia was given followed by 600 mg IM injection of ketamine. An intravenous line was placed in the external jugular and the sheep received an additional 200 mg of ketamine IV and a prophylactic dose of cefazolin 1 g IV. After intubation, the sheep were maintained on 2% isoflurane in oxygen and mechanically ventilated. The sheep received IV fluids (0.9% Normal Saline). Body temperature was maintained with a circulating water pad. Oxygen saturation was monitored and maintained between 98-100%. Heart rate and blood pressure remained within normal limits and required no adjustments. Sheep was positioned prone with hind limbs positioned cephalad beside the abdomen. A positioning pillow was placed under the chest, raising the head and chest and allowing a lordotic curve of the lumbar spine. The sheep was loosely secured to the operating table. The lumbrosacral area was sterilely prepped with betadine and draped. A vertical midline incision was made over the L-6 to S-2 vertebrae. The spinous processes of L6 and S1 were partially resected to allow greater exposure of the dura. A purse string of 7-O nylon was placed in the dura, the dura carefully lifted and nicked. A RACZ epidural catheter (16 Ga×36) catheter with snaplock catheter/syringe adapter was placed into the subarachnoid space and advanced until the 10 cm mark was at the opening of the dura. Once CSF flow through the catheter was confirmed, the dura was pulled close to the catheter with the purse string and the catheter was secured to the muscle fascia. The dura, muscle fascia, and skin were closed. The catheter was looped and secured subcutaneously. The catheter was then tunneled and secured to the skin of the sheep with suture. The sheep was allowed 5 days to recover and was tested for neurologic deficits. Animals with neurologic deficits were sacrificed.
(§1) After the placement of an intrathecal catheter and the documentation of a lack of any neurological deficits, common peroneal nerve injury surgery was performed. As described previously, the sheep was premedicated with intramuscular ketamine, intubated and mechanically ventilated. The sheep was positioned laterally and the hind leg was sterilely prepared and draped. A vertical incision was made mid-thigh. The semimembranous and semitendinous muscle bellies were separated to expose the common peroneal nerve and tibial nerve. The common peroneal nerve was ligated with 2-0 silk suture and cut distally. A 1-cm segment was removed from the distal stump to prevent re-growth. Fascia and skin were closed.
With the sheep in the stanchion, a pin-prick test was performed using a 300 gram von-frey filament. […] The duration of hindlimb withdrawal was recorded^14.
Three weeks after peroneal nerve injury, the analgesic effect of morphine was measured. […]
Baseline withdrawal thresholds to mechanical stimulation were measured prior to morphine administration and at ten-minute intervals post-morphine. The anti-nociceptive effect of morphine time course was determined by measuring the pin-prick frequency every 10-min after intrathecal administration. […]

[2] = test system: peripheral nerve injury sheep model; experiment: Mechanical allodynia (hindlimb withdrawal threshold, von Frey filaments) after intrathecal morphine in the peripheral nerve injury sheep model; format: in vivo; settings: intrathecal morphine sulfate 50 to 1200 micrograms, three weeks after peripheral nerve injury
Protocol: as §1, with “closed. […]” for “closed.”
Based on the response to the first von-frey stimuli presented the following stimulus was increased if a negative or null response or decreased if there was a positive response. The 50% response threshold was calculated using the formula: 50% g threshold=(10^[x^f^+κδ]/10,000. The 50% withdrawal thresholds to von-frey filaments were used to assess the behavior change. To avoid inter-observer variability, one investigator did the majority of behavioral experiments. Additionally, each sheep did only one behavioral test per day.
Baseline withdrawal thresholds to mechanical stimulation were measured prior to morphine administration and at ten-minute intervals post-morphine. […]

[3] = 200 micrograms intrathecal, measured by pin prick
[4] = intrathecal 2 to 1200 micrograms, three weeks after peroneal nerve injury, 30 minutes after drug delivery

Compound: CN1CC[C@]23c4c5ccc(O)c4O[C@H]2[C@@H](O)C=C[C@H]3[C@H]1C5 [morphine]
- duration of analgesia [1, 3]: > 120 min
- time of peak analgesia [1, 3]: 30 min
- reduction in efficacy, ipsilateral compared to contralateral dose response curve [1, 4]: approximately 4 fold
- reduction in potency, ipsilateral compared to contralateral dose response curve [1, 4]: approximately 2 fold
- analgesic effect after nerve injury / injured versus contralateral hindlimb (in words) ([1]; intrathecal, ipsilateral (nerve injured) vs contralateral (non-injured) hindlimb): significantly reduced; also recorded: much less analgesia; also recorded: more potency on the contralateral
- hindlimb withdrawal threshold, reversal (contralateral hindlimb) [2]: completely reversed
- increase of hindlimb withdrawal threshold on the ipsilateral hindlimb [2]: 36%
